Patent US5750540A, “1,4-di-substituted piperidine derivatives” (Banyu Pharmaceutical Co., Ltd., priority 1995, dated 1998)

Tests used:
muscarinic M1 receptors = target: T1, muscarinic M1 receptors (Rattus norvegicus, UniProt P08482); assay: Inhibition of binding to muscarinic M1 receptors ([3H]-telenzepine, cerebral cortex membrane)
T1 construct: a mixture of a membrane specimen from the cerebral cortex; from tissue; host or cells: rat cerebral cortex membranes (SD rat)
T1 sequence (P08482 1-460): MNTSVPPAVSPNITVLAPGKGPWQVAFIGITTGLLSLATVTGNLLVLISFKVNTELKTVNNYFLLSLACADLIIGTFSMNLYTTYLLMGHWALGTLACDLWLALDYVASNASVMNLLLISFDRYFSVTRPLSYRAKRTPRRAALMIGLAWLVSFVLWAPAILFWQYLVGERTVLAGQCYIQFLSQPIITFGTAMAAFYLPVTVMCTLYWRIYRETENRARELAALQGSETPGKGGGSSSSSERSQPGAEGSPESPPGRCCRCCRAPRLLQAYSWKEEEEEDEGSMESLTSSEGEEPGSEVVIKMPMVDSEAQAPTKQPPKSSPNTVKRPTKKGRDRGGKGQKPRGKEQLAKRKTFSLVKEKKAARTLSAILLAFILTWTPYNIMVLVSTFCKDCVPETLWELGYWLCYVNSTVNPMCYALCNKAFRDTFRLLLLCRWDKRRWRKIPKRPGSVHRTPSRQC
Method: (§1) In these tests, their inhibitory and antagonistic effects were expressed in terms of the dissociation constant (Ki) of each test compound which was calculated from its concentration (IC50 ) causing a 50% inhibition of the binding of a labeled ligand to muscarinic receptors. As the labeled ligand, [^3 H]-telenzepine was used for the muscarinic M1 receptors and [^3 H]-N-methylscopolamine for the muscarinic M2 and M3 receptors.
(§2) A male SD strain rat (purchased from Nippon Charles River Co., Ltd.), weighing about 250-350 g, was sacrificed, and the cerebral cortex, heart and lacrimal glands were excised. Using a Polytron (setting 5), each organ was homogenized in 5 volumes of an ice-cold buffer solution (pH 7.4) containing 50 mM tris-HCl, 5 mM magnesium chloride, 1 mM trisodium ethylenediaminetetraacetate and 20% sucrose. The resulting homogenate was centrifuged at 3,000×g at 4° C. for 15 minutes, and the supernatant was filtered through gauze and ultracentrifuged at 100,000×g at 4° C. for 45 minutes. The resulting precipitate was suspended in an ice-cold buffer solution (pH 7.4) containing 50 mM tris-HCl and 5 mM magnesium chloride (hereinafter referred briefly to as "tris buffer") and ultracentrifuged at 100,000×g at 4° C. for 45 minutes. The resulting precipitate was suspended in tris buffer so as to give a concentration of 50 mg/ml and stored at -80° C. till use. The membrane specimens so prepared were thawed prior to use and submitted to tests for the inhibition of binding to muscarinic receptors.
2) Tests for the inhibition of binding to the muscarinic M1 receptors
These tests were performed according to a modification of the method of Hargreaves et al. [Br. J. Pharmacol., Vol. 107, pp. 494-501 (1992)]. Specifically, a mixture of a membrane specimen from the cerebral cortex, 1 nM [^3 H]-telenzepine (85 Ci/mmol; manufactured by New England Nuclear) and a test compound in 0.5 ml of tris buffer was incubated at room temperature (about 20°-25° C.) for 120 minutes. After the addition of 0.5 ml of ice-cold tris buffer, the mixture was filtered by suction through a glass filter (Packard Unifilter Plate GF/C). Then, the filter was washed four times with 1 ml portions of ice-cold tris buffer and dried at 50° C. for an hour. After the addition of a scintillator (Packard Microscinti 0), the radioactivity of [^3 H]-telenzepine adsorbed to the filter was measured with a microplate scintillation counter (Packard Topcount). The nonspecific binding of [^3 H]-telenzepine to receptors was determined by the addition of […] pirenzepine. According to the method of Cheng and Prusoff [Biochem. Pharmacol., Vol. 22, pp. 3099-3108 (1973)], the affinity of the test compound (i.e., a compound in accordance with the present invention) for the muscarinic M1 receptors was determined in terms of its dissociation constant (Ki) calculated from the concentration (IC50) of the test compound which was required to cause a 50% inhibition of the binding of [^3 H]-telenzepine used as the labeled ligand.

muscarinic M3 receptor = muscarinic M3 receptor (Rattus norvegicus, UniProt P08483); assay: Inhibition of binding to muscarinic M3 receptors ([3H]-N-methylscopolamine, lacrimal gland membrane); parameters: a membrane specimen from the lacrimal glands was used as the membrane specimen; from tissue; host or cells: rat lacrimal gland membranes (SD rat); settings: for M1/M3 / M2/M3: ratio of binding Ki; for M1/M3: M1 over M3; for M2/M3: M2 over M3
muscarinic M3 receptor, sequence (P08483 whole entry): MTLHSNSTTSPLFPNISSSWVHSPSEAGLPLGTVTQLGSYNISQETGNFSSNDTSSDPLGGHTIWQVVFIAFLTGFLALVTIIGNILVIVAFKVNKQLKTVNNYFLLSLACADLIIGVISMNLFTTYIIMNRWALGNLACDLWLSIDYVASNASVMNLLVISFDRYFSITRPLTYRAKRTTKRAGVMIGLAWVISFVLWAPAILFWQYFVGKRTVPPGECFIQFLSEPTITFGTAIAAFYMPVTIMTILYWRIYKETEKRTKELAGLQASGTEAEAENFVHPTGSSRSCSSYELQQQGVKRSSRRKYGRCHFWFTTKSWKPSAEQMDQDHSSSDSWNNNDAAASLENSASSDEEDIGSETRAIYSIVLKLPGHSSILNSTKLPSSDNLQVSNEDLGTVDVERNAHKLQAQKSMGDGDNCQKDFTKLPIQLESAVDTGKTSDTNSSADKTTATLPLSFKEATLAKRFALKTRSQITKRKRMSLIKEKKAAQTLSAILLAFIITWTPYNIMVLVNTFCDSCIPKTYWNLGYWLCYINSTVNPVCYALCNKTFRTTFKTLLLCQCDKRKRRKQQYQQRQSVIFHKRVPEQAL
Method: as §1, §2
4) Tests for the inhibition of binding to the muscarinic M2 receptors
(§3) The nonspecific binding of [^3 H]-N-methylscopolamine to receptors was determined by the addition of 1 mM N-methylscopolamine.

muscarinic M2 receptors = target: T2, muscarinic M2 receptors (Rattus norvegicus, UniProt P10980); assay: Inhibition of binding to muscarinic M2 receptors ([3H]-N-methylscopolamine, heart membrane); settings: 0.2 nM [3H]-N-methylscopolamine
T2 construct: a membrane specimen from the heart was used as the membrane specimen; from tissue; host or cells: rat heart membranes (SD rat)
T2 sequence (P10980 1-466): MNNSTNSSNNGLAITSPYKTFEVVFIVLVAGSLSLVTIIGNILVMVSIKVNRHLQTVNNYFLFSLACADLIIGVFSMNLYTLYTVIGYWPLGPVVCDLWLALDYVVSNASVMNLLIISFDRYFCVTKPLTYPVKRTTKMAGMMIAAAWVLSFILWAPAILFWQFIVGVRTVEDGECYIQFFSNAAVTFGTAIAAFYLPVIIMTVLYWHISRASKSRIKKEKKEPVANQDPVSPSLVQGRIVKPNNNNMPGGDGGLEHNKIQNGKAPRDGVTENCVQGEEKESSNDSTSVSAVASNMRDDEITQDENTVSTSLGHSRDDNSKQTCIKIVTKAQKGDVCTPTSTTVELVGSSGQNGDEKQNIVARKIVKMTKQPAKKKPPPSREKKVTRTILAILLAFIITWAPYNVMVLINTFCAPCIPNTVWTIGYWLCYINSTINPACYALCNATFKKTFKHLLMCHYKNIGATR
Method: as §1, with “The compounds of formula [I] in accordance with the present invention have a potent and selective inhibitory effect on binding to muscarinic receptors, as well as a potent and selective antagonistic effect on muscarinic receptors both in vitro and in vivo. […] In” for “In”
as §2
3) Tests for the inhibition of binding to the muscarinic M2 receptors
as §3

SMILES	Ki (muscarinic M1 receptors)	Ki (muscarinic M3 receptor)	M1/M3 (muscarinic M3 receptor)	M2/M3 (muscarinic M3 receptor)	Ki (muscarinic M2 receptors)
CC[C@H](C)CCCN1CCC(NC(=O)[C@](O)(c2ccccc2)C2CCCC2)CC1.Cl [Example 29, (2R)-N-{1-[(4S)-4-Methylhexyl]piperidin-4-yl}-2-cyclopentyl-2-hydroxy-2-phenylacetamide hydrochloride]	40 nM	4.1 nM	10	270	1100 nM
O=C(NC1CCN(CC2CCCCC2)CC1)C(O)(c1ccccc1)C1CCCC1 (stereo not shown) [Example 32, N-[1-(Cyclohexylmethyl)piperidin-4-yl]-2-cyclopentyl-2-hydroxy-2-phenylacetamide]		11 nM			2300 nM
CC[C@H](C)CCCN1CCC(NC(=O)[C@](O)(c2ccccc2)C2CCC2)CC1.Cl [Example 22, (2R)-N-{1-[(4S)-4-Methylhexyl]piperidin-4-yl}-2-cyclobutyl-2-hydroxy-2-phenylacetamide hydrochloride]	120 nM	9.2 nM	13.0	152	1400 nM
CC(C)=CCCN1CCC(NC(=O)[C@](O)(c2ccccc2)C2CCCC2)CC1.O=C(O)/C=C/C(=O)O [Example 28, (2R)-N-[1-(4-Methyl-3-pentenyl)piperidin-4-yl]-2-cyclopentyl-2-hydroxy-2-phenylacetamide fumarate]	6 nM	2 nM	3.0	96	190 nM
CC(C)=CCCN1CCC(NC(=O)C(O)(c2ccccc2)C2CCCC2)CC1 (stereo not shown) [Example 16, N-[1-(4-Methyl-3-pentenyl)piperidin-4-yl]-2-cyclopentyl-2-hydroxy-2-phenylacetamide]	13 nM	3.1 nM	4.2	97	302 nM
